In patent US8057829B2, “Methods for repelling insects using sesquiterpene hydrocarbons and their derivatives” (Sterling International Inc., priority 2008, dated 2011):

Experiments:
[1] = tested on: housefly (Musca domestica) antenna; experiment: GC-EAD antennal response, housefly; conditions: female housefly antenna; synthetic mixture, about 100 ng of each compound; FIG. 3
Description: The sesquiterpene hydrocarbons and their derivatives disclosed herein have been identified as suitable insect repellents by testing via a gas chromatographic-electroantennographic detection (GC-EAD) method as described in Example 1 below. This method can be used to efficiently screen for potentially behaviorally active compounds, including insect repellents, attractants, deterrents, or attraction-inhibitors from complex natural sources or synthetic mixtures.
The GC-EAD responses of the female housefly antenna were tested on a synthetic mixture of 1-octen-3-ol, a known attractant used as a positive control, and representative sesquiterpene hydrocarbons and derivatives, (+)-longipinene, (−)-isolongifolene, (+)-longifolene, β-caryophyllene, α-humulene, and isolongifolenone, with about 100 ng of each compound in the mixture.
The GC-EAD responses of the male housefly antenna were tested on a synthetic mixture of 1-octen-3-ol, and two representative sesquiterpenes, β-caryophyllene and isocaryophyllene, with about 100 ng of each compound in the mixture.
(§1) The following procedures were employed to test the EAD response of an insect antenna to a repellent compound. The GC-EAD technique provides an efficient tool for screening behaviorally active repellents. Several synthetic mixtures of potential insect repellent candidates, mostly sesquiterpene hydrocarbons and derivatives, were analyzed in splitless mode using a Varian CP-3800 GC equipped with a polar column (Innowax; 1.0 μm film thickness, 30 m×0.53 mm ID; J & W Scientific), and a 1:1 effluent splitter that allowed simultaneous flame ionization detection (FID) and EAD of the separated volatile compounds. Helium was used as the carrier gas, and the injector temperature was 220° C. The column temperature was 50° C. for 2 min, rising to 240° C. at 10° C./min, then held for 10 min. The outlet for the EAD was held in a humidified air stream flowing at 0.5 liter/min. over an antennal preparation. A glass capillary indifferent electrode filled with Beadle-Ephrussi Ringer, and grounded via a silver wire, was inserted into the severed insect's head with the antennae. A similar recording electrode connected to a high-impedance DC amplifier with automatic baseline drift compensation was placed in contact with the distal end of one antenna (Zhang et al., Chemoecology, 10:69-80 (2000)). The antennal signals were stored and analyzed on a PC equipped with a serial IDAC interface box and the program EAD ver. 2.5 (Syntech, Hilversum, The Netherlands). The compound 1-octen-3-ol (known attractant for many flies and mosquitoes) was included in most of the synthetic mixtures, as a positive control. The results of the experiments are shown in FIGS. 1-10 and described above.

[2] = tested on: antennae of housefly, sand fly, and mosquitoes Aedes aegypti, Anopheles gambiae, Anopheles stephensi; experiment: GC-EAD antennal responses to SPME samples of clove essential oil; conditions: component of clove essential oil SPME sample; response by one or more of the insects; FIG. 1
Procedure: The GC-EAD antennal response of a female housefly (Musca domestica), sand fly (Phlebotomus papatasi), and mosquitoes including the species Aedes aegypti, Anopheles gambiae, and Anopheles stephensi were tested with clove essential oil. FIG. 1 is a simultaneous recording of GC flame ionization detection (FID) and electroantennographic detection (EAD) of the insect antennae to solid phase microextraction (SPME: CAR/PDMS) samples of clove essential oil in a 20 ml glass vial for 20 sec.
as §1, with “The results of the experiments are shown in FIGS. 1-10 and described above.” left out

[3] = tested on: male false stable fly Muscina stabulans antenna and female mosquito Aedes (Ochlerotatus) increpitus Dyar antenna; experiment: GC-EAD responses of false stable fly and Aedes increpitus to a synthetic mixture; conditions: about 100 ng of each compound, FIG. 5
Procedure: The GC-EAD responses of the male false stable fly Muscina stabulans antenna and the female mosquito Aedes (Ochlerotatus) increpitus Dyar antenna were tested on a synthetic mixture of linalool and two representative sesquiterpene hydrocarbons, β-caryophyllene and α-humulene, and one sesquiterpene oxide, β-caryophyllene oxide, with about 100 ng of each compound in the mixture.
as §1

[4] = tested on: antennae of Musca domestica, Lucillia sericata, Sarcophaga sp., Muscina stabulans, Culex pipiens, Aedes increpitus; experiment: GC-EAD responses of several flies and two mosquitoes to a synthetic mixture; conditions: about 100 ng of each compound, FIG. 6
Procedure: The GC-EAD responses of several species of flies and two species of mosquito antennae were tested on a synthetic mixture of 1-octen-3-ol, linalool, two representative sesquiterpene hydrocarbons, β-caryophyllene and α-humulene, ZE-nepetalactone, EZ-nepetalactone, and two known insect repellents, DEET, and SS220, with about 100 ng of each compound in the mixture. DEET and SS220 are used as positive controls in the experiment. The compound 1-octen-3-ol is a known attractant for the insects and is also used as a positive control. The insects tested are species of Musca domestica, Lucillia sericata, Sarcophaga sp., Muscina stabulans, Culex pipiens, and Aedes increpitus.
as §1, with “2.5 (Syntech, Hilversum, The Netherlands). The compound 1-octen-3-ol (known attractant for many flies and mosquitoes) was included in most of the synthetic mixtures, as a positive control. The results of the experiments are shown in FIGS. 1-10 and described above.” left out

[5] = tested on: female antennae of sand fly Phlebotomus papatasi and mosquitoes Aedes aegypti, Anopheles gambiae, Anopheles stephensi; experiment: GC-EAD responses of sand fly and three mosquitoes to synthetic mixtures; conditions: about 100 ng of each compound, on one or more of the sand fly or the mosquitoes, FIGS. 9 and 10
Procedure: The GC-EAD responses of female antennae of the sand fly, Phlebotomus papatasi, and three species of mosquitoes, Aedes aegypti, Anopheles gambiae, and anopheles stephensi were tested on a synthetic mixture of 1-octen-3-ol, six sesquiterpene hydrocarbons including (+)-longipinene, (−)-isolongifolene, (+)-longifolene, β-caryophyllene, isolongifolenone, and α-humulene, and several known insect repellents including ZE-nepetalactone, EZ-nepetalactone, with about 100 ng of each compound in the mixture.
The GC-EAD responses of female antennae of the sand fly, Phlebotomus papatasi, and three species mosquitoes, Aedes aegypti, Anopheles gambiae, and anopheles stephensi were tested on a synthetic mixture of 1-octen-3-ol, linalool, β-caryophyllene oxide, isocaryophyllene, β-caryophyllene, and α-humulene, and DEET, with about 100 ng of each compound in the mixture.
as §1

houseflies = experiment: Laboratory sticky trap bioassay of spatial repellency with egg powder attractant; assay type: in vivo, housefly (Musca domestica)
Procedure: Laboratory bioassay tests were carried out to investigate the efficacy of some of the EAD-active compounds described above to act as spatial repellents against several insects. The procedure for the bioassay tests is described in Example 2 below. Briefly stated, the bioassay included using egg powder (EP) as an attractant for flies, while the compound whose insect repellency was being tested was placed in proximity to the egg powder. In FIGS. 11-13, the bioassay was carried out on houseflies using devices known by the designation Trécé Pherocon® VI sticky traps.
The following lab bioassay tests were employed to illustrate the efficacy of the compounds to effectively act as spatial repellents for flies. Three sets of tests were conducted in a fly testing room (23° C., 70% RH, and 12/12 (L/D) light regime illuminated by fluorescent lights). Two sets of tests were carried out using Trécé Pherocon® VI traps with sticky inserts, which were set up on poles evenly spaced on a rotating table. The traps were ca. 1 m above a table surface, and ca. 1 m apart from each other. Two grams of egg powder in a white cap (4 cm in diameter, 0.5 cm in height) used as an attractant was put on the center of the sticky insert in the sticky trap. The potential repellent candidate chemicals were loaded into polyethylene bags, and were hung under the inner roof of the traps, 1-1.5 cm above the egg powder attractant. A control had the empty white cap and blank polyethylene bag, while the positive control had only the egg powder and an empty polyethylene bag. The test table was rotated 1.5 r.p.h. […] About 200-300 houseflies (2-3 days old) were released into the testing room for each test. Tests were normally run from 8:00 am to 5:00 pm, and the numbers of houseflies caught in each trap were counted after each test. The results of these tests are shown in FIGS. 11-13 and described above.

Compound	GC-EAD antennal activity [1]	GC-EAD antennal activity [2]	GC-EAD antennal activity [3]	GC-EAD antennal activity [4]	GC-EAD antennal activity [5]	number of house flies per trap (houseflies; egg powder attractant plus repellent, FIG. 11, egg powder alone 44) [house flies per trap]	repellency against houseflies, in words (houseflies; laboratory trap bioassay with egg powder attractant)
C/C1=C\CC/C(C)=C/CC(C)(C)/C=C/C1 [α-humulene]	active	EAD-active	active on at least one of the insects tested	active on at least one of the insects tested	antennally active		
C=CC(C)(O)CCC=C(C)C (stereo not shown) [linalool, 3,7-dimethyl-3-hydroxy-1,6-octadiene]			active on at least one of the insects tested	active on at least one of the insects tested	antennally active	5.5	effective housefly repellents
